Reference: US9161935B2 (TEVA PHARMACEUTICAL INDUSTRIES, LTD., priority 2012, dated 2015)

System: Moderate to severe Crohn's disease (CD) subjects
Experiment: Phase IIa trial CD-LAQ-201: safety/tolerability (adverse events)
Assay type: in vivo, human
Description: Safety/Tolerability • 1. Adverse events (AEs). • 2. Clinical laboratory values. • 3. Vital signs. • 4. ECG. • 5. Proportion of subjects who prematurely discontinue treatment. • 6. Proportion of subjects who prematurely discontinue treatment due to AEs. • 7. Time to premature treatment discontinuation. • 8. Time to premature treatment discontinuation due to AEs.

Compound: CCN(C(=O)c1c(O)c2c(Cl)cccc2n(C)c1=O)c1ccccc1 [laquinimod]
- dose response relationship for the overall incidence of AEs (0.5-2.0 mg/day): no apparent dose response relationship
- Common Adverse Events: Abdominal Distension (Laq 0.5 mg (N = 29)): 10.3%
- Common Adverse Events: Abdominal Pain (Laq 0.5 mg (N = 29)): 17.2%
- Common Adverse Events: Abdominal Pain Upper (Laq 0.5 mg (N = 29)): 3.4%
- Common Adverse Events: Alanine Aminotransferase Increased (Laq 0.5 mg (N = 29)): 0%
- Common Adverse Events: Asthenia (Laq 0.5 mg (N = 29)): 3.4%
- Common Adverse Events: Back Pain (Laq 0.5 mg (N = 29)): 10.3%
- Common Adverse Events: Cough (Laq 0.5 mg (N = 29)): 6.9%
- Common Adverse Events: Crohn's Disease^a (Laq 0.5 mg (N = 29)): 6.9%
- Common Adverse Events: Diarrhoea (Laq 0.5 mg (N = 29)): 20.7%
- Common Adverse Events: Dizziness (Laq 0.5 mg (N = 29)): 3.4%
- Common Adverse Events: Fatigue (Laq 0.5 mg (N = 29)): 6.9%
- Common Adverse Events: Headache (Laq 0.5 mg (N = 29)): 24.1%
- Common Adverse Events: Myalgia (Laq 0.5 mg (N = 29)): 0%
- Common Adverse Events: Nausea (Laq 0.5 mg (N = 29)): 3.4%
- Common Adverse Events: Pyrexia (Laq 0.5 mg (N = 29)): 24.1%
- Common Adverse Events: Rectal Haemorrhage (Laq 0.5 mg (N = 29)): 0%
- Common Adverse Events: Tachycardia (Laq 0.5 mg (N = 29)): 0%
- Common Adverse Events: Vomiting (Laq 0.5 mg (N = 29)): 17.2%
- Common Adverse Events: Abdominal Distension (Laq 1.0 mg (N = 30)): 0%
- Common Adverse Events: Abdominal Pain (Laq 1.0 mg (N = 30)): 13.3%
- Common Adverse Events: Abdominal Pain Upper (Laq 1.0 mg (N = 30)): 0%
- Common Adverse Events: Alanine Aminotransferase Increased (Laq 1.0 mg (N = 30)): 10%
- Common Adverse Events: Asthenia (Laq 1.0 mg (N = 30)): 6.7%
- Common Adverse Events: Back Pain (Laq 1.0 mg (N = 30)): 10%
- Common Adverse Events: Cough (Laq 1.0 mg (N = 30)): 10%
- Common Adverse Events: Crohn's Disease^a (Laq 1.0 mg (N = 30)): 16.7%
- Common Adverse Events: Diarrhoea (Laq 1.0 mg (N = 30)): 3.3%
- Common Adverse Events: Dizziness (Laq 1.0 mg (N = 30)): 3.3%
- Common Adverse Events: Fatigue (Laq 1.0 mg (N = 30)): 0%
- Common Adverse Events: Headache (Laq 1.0 mg (N = 30)): 26.7%
- Common Adverse Events: Myalgia (Laq 1.0 mg (N = 30)): 3.3%
- Common Adverse Events: Nausea (Laq 1.0 mg (N = 30)): 20%
- Common Adverse Events: Pyrexia (Laq 1.0 mg (N = 30)): 3.3%
- Common Adverse Events: Rectal Haemorrhage (Laq 1.0 mg (N = 30)): 3.3%
- Common Adverse Events: Tachycardia (Laq 1.0 mg (N = 30)): 0%
- Common Adverse Events: Vomiting (Laq 1.0 mg (N = 30)): 20%
- Common Adverse Events: Abdominal Distension (Laq 1.5 mg (N = 29)): 3.4%
- Common Adverse Events: Abdominal Pain (Laq 1.5 mg (N = 29)): 24.1%
- Common Adverse Events: Abdominal Pain Upper (Laq 1.5 mg (N = 29)): 6.9%
- Common Adverse Events: Alanine Aminotransferase Increased (Laq 1.5 mg (N = 29)): 0%
- Common Adverse Events: Asthenia (Laq 1.5 mg (N = 29)): 10.3%
- Common Adverse Events: Back Pain (Laq 1.5 mg (N = 29)): 13.8%
- Common Adverse Events: Cough (Laq 1.5 mg (N = 29)): 6.9%
- Common Adverse Events: Crohn's Disease^a (Laq 1.5 mg (N = 29)): 17.2%
- Common Adverse Events: Diarrhoea (Laq 1.5 mg (N = 29)): 0%
- Common Adverse Events: Dizziness (Laq 1.5 mg (N = 29)): 10.3%
- Common Adverse Events: Fatigue (Laq 1.5 mg (N = 29)): 10.3%
- Common Adverse Events: Headache (Laq 1.5 mg (N = 29)): 24.1%
- Common Adverse Events: Myalgia (Laq 1.5 mg (N = 29)): 0%
- Common Adverse Events: Nausea (Laq 1.5 mg (N = 29)): 6.9%
- Common Adverse Events: Pyrexia (Laq 1.5 mg (N = 29)): 20.7%
- Common Adverse Events: Rectal Haemorrhage (Laq 1.5 mg (N = 29)): 10.3%
- Common Adverse Events: Tachycardia (Laq 1.5 mg (N = 29)): 10.3%
- Common Adverse Events: Vomiting (Laq 1.5 mg (N = 29)): 3.4%
- Common Adverse Events: Abdominal Distension (Laq 2.0 mg (N = 29)): 3.4%
- Common Adverse Events: Abdominal Pain (Laq 2.0 mg (N = 29)): 24.1%
- Common Adverse Events: Abdominal Pain Upper (Laq 2.0 mg (N = 29)): 17.2%
- Common Adverse Events: Alanine Aminotransferase Increased (Laq 2.0 mg (N = 29)): 3.4%
- Common Adverse Events: Asthenia (Laq 2.0 mg (N = 29)): 6.9%
- Common Adverse Events: Back Pain (Laq 2.0 mg (N = 29)): 3.4%
- Common Adverse Events: Cough (Laq 2.0 mg (N = 29)): 3.4%
- Common Adverse Events: Crohn's Disease^a (Laq 2.0 mg (N = 29)): 13.8%
- Common Adverse Events: Diarrhoea (Laq 2.0 mg (N = 29)): 10.3%
- Common Adverse Events: Dizziness (Laq 2.0 mg (N = 29)): 3.4%
- Common Adverse Events: Fatigue (Laq 2.0 mg (N = 29)): 0%
- Common Adverse Events: Headache (Laq 2.0 mg (N = 29)): 44.8%
- Common Adverse Events: Myalgia (Laq 2.0 mg (N = 29)): 17.2%
- Common Adverse Events: Nausea (Laq 2.0 mg (N = 29)): 20.7%
- Common Adverse Events: Pyrexia (Laq 2.0 mg (N = 29)): 13.8%
- Common Adverse Events: Rectal Haemorrhage (Laq 2.0 mg (N = 29)): 0%
- Common Adverse Events: Tachycardia (Laq 2.0 mg (N = 29)): 3.4%
- Common Adverse Events: Vomiting (Laq 2.0 mg (N = 29)): 20.7%
- tolerability (active Crohns disease): well tolerated
- change from Baseline in biochemical or hematological parameters (any of the dose groups): no consistent trends in change from Baseline
- deaths during the study (in vivo): No subject died
- severity of most AEs (in vivo): mild or moderate
- changes in vital signs or ECGs (laquinimod dose groups): no clinically significant changes
- most common SAE: CD (exacerbation), % of patients (laquinimod groups, pooled placebo 1.6%): 3.4-6.9%
- overall incidence of AEs (laquinimod groups, pooled placebo 82.5%): 86.2-96.7%
